# Literature values, collected in patent publication US20220024925A1, “Deuterium-Substituted 7-Substituted-2-(Benzylamino)-6-Ozopurine Compounds and Uses Thereof” (Acurx Pharmaceuticals LLC, priority 2020, published 2022).
# Tests used:
# [1] = tested on: C. diff; details: stated in words only; see Wright et al., U.S. Pat. No. 8,796,292
# [2] = tested on: other, intestinal Gram-positive anaerobes; details: stated in words only; see Wright et al., U.S. Pat. No. 8,796,292
structure (smiles),measurement,setting,value
"O=c1[nH]c(NCc2ccc(Cl)c(Cl)c2)nc2ncn(CCN3CCOCC3)c12 [Compound I-1, 2-((3,4-dichlorobenzyl)amino)-7-(2-morpholinoethyl)-1,7-dihydro-6H-purin-6-one]",activity against the growth of the intestinal anaerobe C. diff,[1],potent activity
same,"activity against other, intestinal Gram-positive anaerobes",[2],weak activity
